# Reference: patent US12577227B2, “WDR5 inhibitors and modulators” (Vanderbilt University, priority 2019, dated 2026)
# System: MV4:11 human cancer cell lines
# Assay: Cellular viability / anti-proliferative activity (CellTiter-Glo)
# Format: cell-based
# Settings: MV4-11, 120 h, MV-4-11 cells, 5 day protocol, mean of minimum two replicates, read-out: GI50 on cellular proliferation of MV4:11 human cancer cell lines
# Method: Cellular Viability of Human Tumor Cell Lines
# Anti-Proliferative Activity Using MLL-Harboring Cell Lines.
# MV-4-11 and K562 cells are grown in IMDM media supplemented with 10% FBS and […], Molm-13 cells are cultured in RPMI-1640 media supplemented with 10% FBS and 1% o penicillin/streptomycin. Viability assays are performed by dispensing 200 cells at 7200 cells/mL into each well of an opaque 384-well plate and adding compounds at the indicated concentrations in a final volume of 32 μL and a final concentration of DMSO of 0.3% for all samples. A certain range of compound concentrations is made through a series of 2-fold dilutions starting 30 μM at the highest, total 22 dilutions. After a set incubation period, 5 day protocol, the viability of cells in each well is assessed using the CellTiter-Glo assay (Promega), read on a 96 Microplane Luminometer (Cytation 3, BioTek). Serial dilutions of each cell type are performed in all assays to generate standard curves and the final densities of cells are determined within the dynamic range of the instrument. GI50 values are calculated based on XLfit software (IDBS, Guildford, UK) with Sigmoidal Dose-Response Model. Each compound is tested in minimum of two replicates. Data are expressed as mean.
row,GI50,Compound
1,290 nM,"CCn1cc(-c2cc(Cn3ccnc3)cc3c2NC(=O)CN([C@H](c2cc(OC)ccn2)C2CC2)C3=O)c(C(F)(F)F)n1 [Example 65, (S)-7-((1H-imidazol-1-yl)methyl)-4-(cyclopropyl(4-methoxypyridin-2-yl)methyl)-9-(1-ethyl-3-(trifluoromethyl)-1H-pyrazol-4-yl)-3,4-dihydro-1H-benzo[e][1,4]diazepine-2,5-dione]"
2,494 nM,"CCc1cc(C(=O)NC)c2nccc(N3CCOc4c(cc(Cn5ccnc5)cc4-c4cn(C)nc4C(F)(F)F)C3=O)c2c1 [Example 72, 4-(7-((1H-imidazol-1-yl)methyl)-9-(1-methyl-3-(trifluoromethyl)-1H-pyrazol-4-yl)-5-oxo-2,3-dihydrobenzo[f][1,4]oxazepin-4(5H)-yl)-6-ethyl-N-methylquinoline-8-carboxamide]"
3,101 nM,"COc1cc(CN2CCOc3c(cc(Cn4cnn(C)c4=N)cc3-c3cn(C)nc3C(F)(F)F)C2=O)cc(OC)c1 [Example 15, 4-(3,5-Dimethoxybenzyl)-7-((5-imino-1-methyl-1,5-dihydro-4H-1,2,4-triazol-4-yl)methyl)-9-(1-methyl-3-(trifluoromethyl)-1H-pyrazol-4-yl)-3,4-dihydrobenzo[f][1,4]oxazepin-5(2H)-one]"
4,730 nM,"Cc1ccnc(CN2C[C@H](C)Oc3c(cc(Cn4ccnc4C)cc3-c3cn(C)nc3C(F)(F)F)C2=O)c1 [Example 39, (S)-2-Methyl-7-((2-methyl-1H-imidazol-1-yl)methyl)-9-(1-methyl-3-(trifluoromethyl)-1H-pyrazol-4-yl)-4-((4-methylpyridin-2-yl)methyl)-3,4-dihydrobenzo[f][1,4]oxazepin-5(2H)-one]"
5,192 nM,"Cc1ccnc(CN2CCOc3c(cc(Cn4ccnc4C)cc3-c3cn(C)nc3C(F)(F)F)C2=O)c1 [Example 27, 7-((2-Methyl-1H-imidazol-1-yl)methyl)-9-(1-methyl-3-(trifluoromethyl)-1H-pyrazol-4-yl)-4-((4-methylpyridin-2-yl)methyl)-3,4-dihydrobenzo[f][1,4]oxazepin-5(2H)-one]"
6,108 nM,"CCn1cc(-c2cc(Cn3ccnc3)cc3c2OCCN([C@H](c2cc(OC)ccn2)C2CC2)C3=O)c(C(F)(F)F)n1 [Example 59, (S)-7-((1H-Imidazol-1-yl)methyl)-4-(cyclopropyl(4-methoxypyridin-2-yl)methyl)-9-(1-ethyl-3-(trifluoromethyl)-1H-pyrazol-4-yl)-3,4-dihydrobenzo[f][1,4]oxazepin-5(2H)-one]"
7,282 nM,"Cc1cc(C)nc(CN2CCOc3c(cc(Cn4ccnc4C)cc3-c3cccnc3C(F)(F)F)C2=O)c1 [Example 42, 4-((4,6-Dimethylpyridin-2-yl)methyl)-7-((2-methyl-1H-imidazol-1-yl)methyl)-9-(2-(trifluoromethyl)pyridin-3-yl)-3,4-dihydrobenzo[f][1,4]oxazepin-5(2H)-one]"
8,158 nM,"CCc1nccn1Cc1cc2c(c(-c3cn(CC)nc3C(F)(F)F)c1)OCCN([C@H](c1cc(OC)ccn1)C1CC1)C2=O [Example 61, (S)-4-(Cyclopropyl(4-methoxypyridin-2-yl)methyl)-7-((2-ethyl-1H-imidazol-1-yl)methyl)-9-(1-ethyl-3-(trifluoromethyl)-1H-pyrazol-4-yl)-3,4-dihydrobenzo[f][1,4]oxazepin-5(2H)-one]"
9,39 nM,"CCn1cc(-c2cc(Cn3ccnc3C)cc3c2OCCN([C@H]2CCOc4ccc(OC)cc42)C3=O)c(C(F)(F)F)n1 [Example 64, (S)-9-(1-ethyl-3-(trifluoromethyl)-1H-pyrazol-4-yl)-4-(6-methoxychroman-4-yl)-7-((2-methyl-1H-imidazol-1-yl)methyl)-3,4-dihydrobenzo[f][1,4]oxazepin-5(2H)-one]"
10,772 nM,"CCOC(=O)c1cc(CC)cc2c(N3CCOc4c(cc(Cn5ccnc5)cc4-c4cn(C)nc4C(F)(F)F)C3=O)ccnc12 [Example 66, Ethyl 4-(7-((1H-imidazol-1-yl)methyl)-9-(1-methyl-3-(trifluoromethyl)-1H-pyrazol-4-yl)-5-oxo-2,3-dihydrobenzo[f][1,4]oxazepin-4(5H)-yl)-6-ethylquinoline-8-carboxylate]"
11,50 nM,"COc1ccnc([C@H](C)N2CCOc3c(cc(Cn4ccnc4C)cc3-c3ccc(F)cc3C)C2=O)c1 [Example 50, (S)-9-(4-Fluoro-2-methylphenyl)-4-(1-(4-methoxypyridin-2-yl)ethyl)-7-((2-methyl-1H-imidazol-1-yl)methyl)-3,4-dihydrobenzo[f][1,4]oxazepin-5(2H)-one]"
12,306 nM,"COc1cnc2cccc(N3CCOc4c(cc(Cn5ccnc5)cc4-c4cn(C)nc4C(F)(F)F)C3=O)c2c1 [Example 70, 7-((1H-imidazol-1-yl)methyl)-4-(3-methoxyquinolin-5-yl)-9-(1-methyl-3-(trifluoromethyl)-1H-pyrazol-4-yl)-3,4-dihydrobenzo[f][1,4]oxazepin-5(2H)-one]"

# More lines, now with the values behind:
row,Compound,GI50
1,"Cc1cc(C)nc(CN2CCOc3c(cc(Cn4ccnc4C)cc3-c3scnc3C)C2=O)c1 [Example 46, 4-((4,6-Dimethylpyridin-2-yl)methyl)-7-((2-methyl-1H-imidazol-1-yl)methyl)-9-(4-methylthiazol-5-yl)-3,4-dihydrobenzo[f][1,4]oxazepin-5(2H)-one]",703 nM
2,"Cc1cc(C)nc(CN2CCOc3c(cc(Cn4ccnc4C)cc3-c3cc(C)c(F)cc3C)C2=O)c1 [Example 51, 4-((4,6-Dimethylpyridin-2-yl)methyl)-9-(4-fluoro-2,5-dimethylphenyl)-7-((2-methyl-1H-imidazol-1-yl)methyl)-3,4-dihydrobenzo[f][1,4]oxazepin-5(2H)-one]",79 nM
3,"COc1cc(CN2C[C@H](C)Oc3c(cc(Cn4ccnc4C)cc3-c3ccc(F)cc3C)C2=O)cc(OC)c1 [Example 36, (S)-4-(3,5-Dimethoxybenzyl)-9-(4-fluoro-2-methylphenyl)-2-methyl-7-((2-methyl-1H-imidazol-1-yl)methyl)-3,4-dihydrobenzo[f][1,4]oxazepin-5(2H)-one]",2430 nM
4,"Cn1cc(-c2cc(Cn3ccn(C)c3=N)cc3c(=O)n(-c4ccccc4-c4ccccc4)cnc23)c(C(F)(F)F)n1 [Example 24, 3-([1,1′-Biphenyl]-2-yl)-6-((2-imino-3-methyl-2,3-dihydro-1H-imidazol-1-yl)methyl)-8-(1-methyl-3-(trifluoromethyl)-1H-pyrazol-4-yl)quinazolin-4(3H)-one]",9010 nM
5,"COc1cc(CN2CC(=O)Nc3c(cc(Cn4ccoc4=N)cc3-c3ccc(F)cc3C)C2=O)cc(OC)c1 [Example 30, 4-(3,5-Dimethoxybenzyl)-9-(4-fluoro-2-methylphenyl)-7-((2-iminooxazol-3(2H)-yl)methyl)-3,4-dihydro-1H-benzo[e][1,4]diazepine-2,5-dione]",190 nM
6,"COc1cc(Cn2cnc3c(-c4ccc(F)cc4C)cc(Cn4ccc5ccccc54)cc3c2=O)cc(OC)c1 [Example 4, 6-((1H-Indol-1-yl)methyl)-3-(3,5-dimethoxybenzyl)-8-(4-fluoro-2-methylphenyl)quinazolin-4(3H)-one]",> 940 nM
7,"COc1cc(Cn2cnc3c(-c4ccc(F)cc4C)cc(Cn4ccn(C)c4=N)cc3c2=O)cc(OC)c1 [Example 1, 3-(3,5-Dimethoxybenzyl)-8-(4-fluoro-2-methylphenyl)-6-((2-imino-3-methyl-2,3-dihydro-1H-imidazol-1-yl)methyl)quinazolin-4(3H)-one]",150 nM
8,"Cc1cc(C)nc(CN2CCOc3c(cc(Cn4ccnc4C)cc3-c3cccnc3C)C2=O)c1 [Example 44, 4-((4,6-Dimethylpyridin-2-yl)methyl)-7-((2-methyl-1H-imidazol-1-yl)methyl)-9-(2-methylpyridin-3-yl)-3,4-dihydrobenzo[f][1,4]oxazepin-5(2H)-one]",548 nM
9,"COc1cc(CN2CCNc3c(cc(Cn4ccn(C)c4=N)cc3-c3ccc(F)cc3C)C2=O)cc(OC)c1 [Example 29, 4-(3,5-Dimethoxybenzyl)-9-(4-fluoro-2-methylphenyl)-7-((2-imino-3-methyl-2,3-dihydro-1H-imidazol-1-yl)methyl)-1,2,3,4-tetrahydro-5H-benzo[e][1,4]diazepin-5-one]",38 nM
10,"COc1ccnc(CN2CCOc3c(cc(Cn4ccn(C)c4=N)cc3-c3ccc(F)cc3C)C2=O)c1 [Example 13, 9-(4-Fluoro-2-methylphenyl)-7-((2-imino-3-methyl-2,3-dihydro-1H-imidazol-1-yl)methyl)-4-((4-methoxypyridin-2-yl)methyl)-3,4-dihydrobenzo[f][1,4]oxazepin-5(2H)-one]",12 nM
11,"COc1cc(CN2CC(C)Oc3c(cc(Cn4ccn(C)c4=N)cc3-c3ccc(F)cc3C)C2=O)cc(OC)c1 (stereo not drawn) [Example 17, 4-(3,5-Dimethoxybenzyl)-9-(4-fluoro-2-methylphenyl)-7-((2-imino-3-methyl-2,3-dihydro-1H-imidazol-1-yl)methyl)-2-methyl-3,4-dihydrobenzo[f][1,4]oxazepin-5(2H)-one]",22 nM
12,"Cc1cc(C)nc(CN2CCOc3c(cc(Cn4ccnc4C)cc3-c3sc(C)nc3C)C2=O)c1 [Example 43, 4-((4,6-Dimethylpyridin-2-yl)methyl)-9-(2,4-dimethylthiazol-5-yl)-7-((2-methyl-1H-imidazol-1-yl)methyl)-3,4-dihydrobenzo[f][1,4]oxazepin-5(2H)-one]",159 nM
